Assay results reported in a compilation of properties of binary mixtures (doi:10.1039/c7cp04592a).

Assay: xn = mol fraction of the nth substance listed
Settings: 100 kPa

Structure (SMILES): CC[NH3+].O=[N+]([O-])[O-] + CC#N
- electrical conductivity (278 K, x1 = 0.1): 1.12 S/m
- electrical conductivity (278 K, x1 = 0.2): 2.29 S/m
- electrical conductivity (278 K, x1 = 0.5): 2.85 S/m
- electrical conductivity (278 K, x1 = 0.7): 2 S/m
- electrical conductivity (278 K, x1 = 0.9): 1.59 S/m
- electrical conductivity (288 K, x1 = 0.1): 1.32 S/m
- electrical conductivity (288 K, x1 = 0.2): 2.85 S/m
- electrical conductivity (288 K, x1 = 0.3): 3.41 S/m
- electrical conductivity (288 K, x1 = 0.5): 3.77 S/m
- electrical conductivity (288 K, x1 = 0.9): 2.27 S/m
- viscosity (288.06 K, x1 = 0.6): 13.65 mPa·s
- viscosity (288.06 K, x1 = 0.8): 31.4 mPa·s
- viscosity (288.06 K, x1 = 0.9): 40.5 mPa·s
- viscosity (288.06 K, x1 = 1): 44.4 mPa·s
- viscosity (288.07 K, x1 = 0.1): 0.815 mPa·s
- viscosity (288.09 K, x1 = 0.2): 1.615 mPa·s
- viscosity (288.09 K, x1 = 0.4): 5.47 mPa·s
- viscosity (288.09 K, x1 = 0.5): 8.6 mPa·s
- viscosity (293.06 K, x1 = 0.4): 4.9 mPa·s
- viscosity (293.07 K, x1 = 0.2): 1.458 mPa·s
- viscosity (293.08 K, x1 = 0.8): 26.09 mPa·s
- viscosity (293.08 K, x1 = 0.9): 34 mPa·s
- viscosity (293.08 K, x1 = 0.98): 36.9 mPa·s
- viscosity (293.08 K, x1 = 1): 37.2 mPa·s
- viscosity (293.09 K, x1 = 0.5): 7.45 mPa·s
- viscosity (293.09 K, x1 = 0.6): 11.54 mPa·s
- viscosity (293.1 K, x1 = 0.1): 0.754 mPa·s
- viscosity (293.11 K, x1 = 0.7): 17.86 mPa·s
- electrical conductivity (298 K, x1 = 0.1): 1.69 S/m
- viscosity (298 K, x1 = 0.1): 0.685 mPa·s
- electrical conductivity (298 K, x1 = 0.2): 3.96 S/m
- viscosity (298 K, x1 = 0.2): 1.374 mPa·s
- electrical conductivity (298 K, x1 = 0.3): 4.71 S/m
- viscosity (298 K, x1 = 0.3): 2.451 mPa·s
- viscosity (298 K, x1 = 0.4): 4.07 mPa·s
- electrical conductivity (298 K, x1 = 0.5): 5 S/m
- viscosity (298 K, x1 = 0.5): 6.37 mPa·s
- viscosity (298 K, x1 = 0.6): 9.92 mPa·s
- viscosity (298 K, x1 = 0.8): 20.97 mPa·s
- electrical conductivity (298 K, x1 = 0.9): 3.14 S/m
- viscosity (298 K, x1 = 0.9): 27.58 mPa·s
- viscosity (298 K, x1 = 0.98): 32 mPa·s
- electrical conductivity (298 K, x1 = 1): 2.26 S/m
- viscosity (298 K, x1 = 1): 32.7 mPa·s
- viscosity (298.05 K, x1 = 0.8): 21.52 mPa·s
- viscosity (298.07 K, x1 = 1): 33.9 mPa·s
- viscosity (298.08 K, x1 = 0.7): 15.22 mPa·s
- viscosity (298.08 K, x1 = 0.9): 28.01 mPa·s
- viscosity (298.11 K, x1 = 0.3): 2.463 mPa·s
- viscosity (298.11 K, x1 = 0.4): 4.11 mPa·s
- viscosity (298.11 K, x1 = 0.5): 6.46 mPa·s
- viscosity (298.13 K, x1 = 0.6): 10.08 mPa·s
- viscosity (298.14 K, x1 = 0.1): 0.698 mPa·s
- viscosity (303.08 K, x1 = 0.7): 12.25 mPa·s
- viscosity (303.09 K, x1 = 0.3): 2.396 mPa·s
- viscosity (303.1 K, x1 = 0.1): 0.651 mPa·s
- viscosity (303.11 K, x1 = 0.4): 4.16 mPa·s
- viscosity (303.11 K, x1 = 0.5): 6.13 mPa·s
- viscosity (303.11 K, x1 = 0.6): 8.74 mPa·s
- viscosity (303.11 K, x1 = 0.9): 24.88 mPa·s
- viscosity (303.12 K, x1 = 0.2): 1.16 mPa·s
- viscosity (303.13 K, x1 = 1): 30.58 mPa·s
- viscosity (303.14 K, x1 = 0.98): 29.95 mPa·s
- viscosity (303.16 K, x1 = 0.8): 17.9 mPa·s
- electrical conductivity (308 K, x1 = 0.1): 2.38 S/m
- electrical conductivity (308 K, x1 = 0.3): 6.28 S/m
- electrical conductivity (308 K, x1 = 0.5): 6.3 S/m
- electrical conductivity (308 K, x1 = 0.9): 4.21 S/m
- electrical conductivity (308 K, x1 = 1): 3.07 S/m
- viscosity (308.11 K, x1 = 1): 26.5 mPa·s
- viscosity (308.12 K, x1 = 0.4): 3.98 mPa·s
- viscosity (308.13 K, x1 = 0.2): 1.074 mPa·s
- viscosity (308.14 K, x1 = 0.98): 24.9 mPa·s
- viscosity (308.15 K, x1 = 0.5): 5.77 mPa·s
- viscosity (308.16 K, x1 = 0.1): 0.618 mPa·s

Structure (SMILES): CC#N + CC[NH3+].O=[N+]([O-])[O-]
- viscosity (288.07 K, x2 = 0): 0.408 mPa·s
- viscosity (293.1 K, x2 = 0): 0.371 mPa·s
- viscosity (298 K, x2 = 0): 0.35 mPa·s
- viscosity (298.12 K, x2 = 0): 0.352 mPa·s
- viscosity (303.13 K, x2 = 0): 0.321 mPa·s
